According to US9796733B2, “Imidazo-pyrazine derivatives useful as soluble guanylate cyclase activators” (Merck Sharp & Dohme Corp., priority 2014, dated 2017):

Experiments:
[1] = tested on: Spontaneously hypertensive rats (SHR); experiment: Acute efficacy in spontaneously hypertensive rats (SHR): telemetry blood pressure lowering after a single oral dose; assay type: in vivo, rat
In short: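 Male SHR carrying aortic telemetry implants (14-day recovery) received a single oral gavage of compound or vehicle (10% transcutol/20% Cremophor/70% water). Conscious blood pressure was sampled 30 s every 10 min and averaged hourly; change was taken against the prior-day vehicle baseline, reported as maximum peak SBP decrease at a given PO dose (mpk).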

[2] = biological target: T1, sGC α1/β1 heterodimer (Homo sapiens, UniProt Q02108+Q02153); experiment: Cell-based sGC functional assay (CASA assay): cGMP generation in CHO-K1/sGC cells, HTRF detection; settings: for Emax: CHO-K1, percent activation relative to standard Compound A in CHO-K1/sGC cells, read-out: % Act.; for EC50: inflection point (IP) of cGMP generation in CHO-K1/sGC cells, 4P fit, activity expressed as percentage of Compound A
T1 construct: expressed in transfected cells; host or cells: CHO-K1 (clone #7, CHO-K1/sGC)
T1 sequence (Q02108 1-690): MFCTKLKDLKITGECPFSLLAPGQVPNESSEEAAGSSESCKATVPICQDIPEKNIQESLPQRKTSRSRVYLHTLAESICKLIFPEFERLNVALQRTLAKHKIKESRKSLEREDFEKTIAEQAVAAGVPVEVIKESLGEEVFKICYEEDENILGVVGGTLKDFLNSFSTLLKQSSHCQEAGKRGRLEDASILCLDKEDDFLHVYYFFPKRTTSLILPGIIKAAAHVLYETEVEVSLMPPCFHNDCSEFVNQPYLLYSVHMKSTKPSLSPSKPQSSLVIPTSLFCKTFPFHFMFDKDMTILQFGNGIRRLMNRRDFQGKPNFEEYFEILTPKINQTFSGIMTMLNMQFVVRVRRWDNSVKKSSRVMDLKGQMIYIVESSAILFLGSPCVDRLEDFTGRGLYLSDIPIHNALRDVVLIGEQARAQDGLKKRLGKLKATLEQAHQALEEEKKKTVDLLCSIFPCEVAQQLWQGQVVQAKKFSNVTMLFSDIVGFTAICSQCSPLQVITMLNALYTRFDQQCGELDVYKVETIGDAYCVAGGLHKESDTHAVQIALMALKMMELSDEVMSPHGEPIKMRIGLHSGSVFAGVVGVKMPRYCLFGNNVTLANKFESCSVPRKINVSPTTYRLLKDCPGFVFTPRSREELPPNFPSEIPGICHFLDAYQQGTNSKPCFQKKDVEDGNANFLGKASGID
T1 sequence (Q02153 1-619): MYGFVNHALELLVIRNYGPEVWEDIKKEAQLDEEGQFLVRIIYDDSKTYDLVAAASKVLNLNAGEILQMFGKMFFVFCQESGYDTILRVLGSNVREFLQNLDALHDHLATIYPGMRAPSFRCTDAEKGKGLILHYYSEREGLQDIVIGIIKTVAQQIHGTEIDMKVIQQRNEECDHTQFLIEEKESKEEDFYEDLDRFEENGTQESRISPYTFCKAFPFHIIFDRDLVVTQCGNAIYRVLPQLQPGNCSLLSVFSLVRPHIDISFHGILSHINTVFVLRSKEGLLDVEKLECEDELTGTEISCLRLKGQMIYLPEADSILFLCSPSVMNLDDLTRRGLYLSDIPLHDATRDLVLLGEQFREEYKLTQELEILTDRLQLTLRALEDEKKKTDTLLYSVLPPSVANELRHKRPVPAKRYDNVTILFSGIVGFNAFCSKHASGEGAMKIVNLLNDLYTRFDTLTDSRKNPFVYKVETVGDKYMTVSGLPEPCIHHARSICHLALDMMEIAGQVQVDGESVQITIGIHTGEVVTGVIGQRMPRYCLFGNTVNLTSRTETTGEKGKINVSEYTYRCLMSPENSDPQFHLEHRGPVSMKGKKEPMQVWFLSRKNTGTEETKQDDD
In short: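 Stable CHO-K1/sGC cells in EBSS buffer with 5 mM MgCl2, 0.05% BSA and 0.5 mM IBMX were incubated with compound (2.5% DMSO final) ±1 μM DETA-NO for 1 hr at 37° C. cGMP was measured by HTRF. Activation is expressed as % of reference HDA Compound A maximum, with IP and max fold induction from a 4P fit.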

| SMILES | Emax [2] [%] | EC50 [2] [nM] | Maximum peak decrease of systolic blood pressure (SBP) in SHR, Cat. ([1]; P.O. 1.0 mpk) | Maximum peak decrease of systolic blood pressure (SBP) in SHR, Cat. ([1]; P.O. 3.0 mpk) | Maximum peak decrease of systolic blood pressure (SBP) in SHR, Cat. ([1]; P.O. 0.3 mpk) |
| --- | --- | --- | --- | --- | --- |
| CC1(c2ccc(F)cc2)C(=O)Nc2nc(-c3cn4c(Br)cnc4c(CCC(F)(F)C(F)(F)F)n3)nc(N)c21 (stereo not drawn) [Example 254A, 4-amino-2-(3-bromo-8-(3,3,4,4,4-pentafluorobutyl)imidazo [1,2-a]pyrazin-6-yl)-5-(4-fluorophenyl)-5-methyl-5H-pyrrolo[2,3-d]pyrimidin-6(7H)-one] | 126 | 57 | C (Category C=SBP in SHRs>40 mmHg) |  |  |
| CC1(c2ccc(F)cc2)C(=O)Nc2nc(-c3cn4c(Cl)cnc4c(CCC(F)(F)C(F)(F)F)n3)nc(N)c21 (stereo not drawn) [Example 255A, 4-amino-2-(3-chloro-8-(3,3,4,4,4-pentafluorobutyl)imidazo [1,2-a]pyrazin-6-yl)-5-(4-fluorophenyl)-5-methyl-5H-pyrrolo[2,3-d]pyrimidin-6(7H)-one] | 142 | 32 | C (Category C=SBP in SHRs>40 mmHg) |  |  |
| CC1(c2ccc(Cl)cc2)C(=O)Nc2nc(-c3cn4ccnc4cn3)nc(NCCC(F)(F)C(F)(F)F)c21 (stereo not drawn) [Example 286A, 5-(4-chlorophenyl)-2-(imidazo[1,2-a]pyrazin-6-yl)-5-methyl-4-((3,3,4,4,4-pentafluorobutyl)amino)-5H-pyrrolo[2,3-d]pyrimidin-6(7H)-one] | 83 | 124 |  | A (Category A=SBP in SHRs<20 mmHg) |  |
| CNc1nc(-c2cn3ccnc3c(CCC(F)(F)C(F)(F)F)n2)nc2c1C(C)(c1ccc(F)cn1)C(=O)N2 (stereo not drawn) [Example 290B, 5-(5-fluoropyridin-2-yl)-5-methyl-4-(methylamino)-2-(8-(3,3,4,4,4-pentafluorobutyl)imidazo[1,2-a]pyrazin-6-yl)-5H-pyrrolo[2,3-d]pyrimidin-6(7H)-one] | 106 | 280 |  | B (Category B=SBP in SHRs 20-40 mmHg) |  |

Further lines, with some results ahead:

| Emax [2] [%] | EC50 [2] [nM] | SMILES | Maximum peak decrease of systolic blood pressure (SBP) in SHR, Cat. ([1]; P.O. 1.0 mpk) | Maximum peak decrease of systolic blood pressure (SBP) in SHR, Cat. ([1]; P.O. 3.0 mpk) | Maximum peak decrease of systolic blood pressure (SBP) in SHR, Cat. ([1]; P.O. 0.3 mpk) |
| --- | --- | --- | --- | --- | --- |
| 123 | 239 | CC1(c2ccc(F)cc2)C(=O)Nc2nc(-c3cn4c(Br)cnc4c(CCC(F)(F)F)n3)nc(N)c21 (stereo not drawn) [Example 264A, 4-amino-2-(3-bromo-8-(3,3,3-trifluoropropyl)imidazo[1,2-a]pyrazin-6-yl)-5-(4-fluorophenyl)-5-methyl-5H-pyrrolo[2,3-d]pyrimidin-6(7H)-one] | A (Category A=SBP in SHRs<20 mmHg) |  |  |
| 92 | 29 | CN1CCN(c2nc(-c3cn4ccnc4c(CCC(F)(F)C(F)(F)F)n3)nc3c2C(C)(c2ccc(F)cc2)C(=O)N3)CC1 (stereo not drawn) [Example 311A, 5-(4-fluorophenyl)-5-methyl-4-(4-methylpiperazin-1-yl)-2-(8-(3,3,4,4,4-pentafluorobutyl)imidazo[1,2-a]pyrazin-6-yl)-5H-pyrrolo[2,3-d]pyrimidin-6(7H)-one] |  |  | A (Category A=SBP in SHRs<20 mmHg) |
| 104 | 434 | CCc1nc(-c2nc(N)c3c(n2)NC(=O)C3(C)c2ccc(Cl)c(F)c2)cn2ccnc12 (stereo not drawn) [Example 314B, 4-amino-5-(4-chloro-3-fluorophenyl)-2-(8-ethylimidazo[1,2-a]pyrazin-6-yl)-5-methyl-5H-pyrrolo[2,3-d]pyrimidin-6(7H)-one] |  | B (Category B=SBP in SHRs 20-40 mmHg) |  |
| 113 | 119 | CC(C)Cc1nc(-c2nc(N)c3c(n2)NC(=O)C3(c2ccc(Cl)c(F)c2)C2CC2)cn2ccnc12 (stereo not drawn) [Example 315A, 4-amino-5-(4-chloro-3-fluorophenyl)-5-cyclopropyl-2-(8-isobutylimidazo[1,2-a]pyrazin-6-yl)-5H-pyrrolo[2,3-d]pyrimidin-6(7H)-one] |  | B (Category B=SBP in SHRs 20-40 mmHg) |  |
